Measured values: BigSolDB 2.1

Cc1ccc2ccccc2c1
Details | solubility (mole fraction)
in 1,4-dioxane, 278.25 K | 0.468
in 1,4-dioxane, 283.25 K | 0.508
in 1,4-dioxane, 288.35 K | 0.575
in 1,4-dioxane, 293.25 K | 0.65
in 1,4-dioxane, 298.35 K | 0.726
in 1,4-dioxane, 303.25 K | 0.817
in acetone, 278.45 K | 0.218
in acetone, 283.25 K | 0.286
in acetone, 288.35 K | 0.368
in acetone, 293.25 K | 0.484
in acetone, 298.35 K | 0.588
in acetone, 303.25 K | 0.741
in ethanol, 278.25 K | 0.0389
in ethanol, 283.25 K | 0.058
in ethanol, 288.35 K | 0.109
in ethanol, 293.25 K | 0.148
in ethanol, 298.35 K | 0.287
in ethanol, 303.25 K | 0.458
in ethylene glycol, 278.25 K | 0.00742
in ethylene glycol, 283.25 K | 0.00811
in ethylene glycol, 288.35 K | 0.00864
in ethylene glycol, 293.25 K | 0.00963
in ethylene glycol, 298.35 K | 0.0102
in ethylene glycol, 303.25 K | 0.0115
in isopropanol, 278.25 K | 0.0276
in isopropanol, 283.25 K | 0.0508
in isopropanol, 288.35 K | 0.077
in isopropanol, 293.25 K | 0.133
in isopropanol, 298.35 K | 0.233
in isopropanol, 303.25 K | 0.43
in n-butanol, 278.25 K | 0.0596
in n-butanol, 283.25 K | 0.0794
in n-butanol, 288.35 K | 0.13
in n-butanol, 293.25 K | 0.223
in n-butanol, 298.35 K | 0.37
in n-butanol, 303.25 K | 0.68
in n-butyl acetate, 278.15 K | 0.621
in n-butyl acetate, 283.15 K | 0.673
in n-butyl acetate, 288.15 K | 0.729
in n-butyl acetate, 293.15 K | 0.787
in n-butyl acetate, 298.15 K | 0.849
in n-butyl acetate, 303.15 K | 0.951
in n-heptane, 278.15 K | 0.502
in n-heptane, 283.15 K | 0.579
in n-heptane, 288.15 K | 0.65
in n-heptane, 293.15 K | 0.726
in n-heptane, 298.15 K | 0.831
in n-heptane, 303.15 K | 0.906
in n-hexane, 278.95 K | 0.283
in n-hexane, 283.25 K | 0.348
in n-hexane, 288.35 K | 0.443
in n-hexane, 293.25 K | 0.55
in n-hexane, 298.35 K | 0.643
in n-hexane, 303.25 K | 0.811
